Laboratory results from patent US20260263485A1, “AMINOSTEROL COMPOUNDS, AMINOSTEROL-CYCLODEXTRIN FORMULATIONS, AND METHODS OF USING THE SAME” (Enterin, Inc., priority 2022, published 2026).
Where “and” joins values, the source holds several entries; their conditions need not be identical. Equal values may be shown once. Read-outs that look alike come from different tables or passages of the source.

Assay: Plasma pharmacokinetics of ENT-03S cyclodextrin formulation after subcutaneous injection
Assay type: in vivo, rat
Settings: 20% beta-cyclodextrin formulation, male SD rats
Method: In this example, ENT-03S was formulated with unmodified beta-cyclodextrin at a concentration of 25 mg/ml ENT-03, and 20% beta-cyclodextrin, pH 7.5, buffered with phosphate.
Male Sprague-Dawley rats were administered the ENT-03-cyclodextrin formulation subcutaneous at a dose of 10 mg/kg. Blood samples were drawn from the tail vein at various times, the concentrations of ENT-03 determined, and PK parameters determined.

[1] = SC Dose 10 mg/kg, plasma, individual rats, 10 mg/kg
[2] = male, Sprague-Dawley, rat, plasma, sc, 10 mg/kg, 10 mg/kg SC, individual rats, read-out: Concentration (ng/ml) Rat 1-3
[3] = male, Sprague-Dawley, rat, plasma, sc, 10 mg/kg, 10 mg/kg SC, mean, read-out: Concentration Mean

Question: With `C[C@H](CCC[C@H](C)C(=O)O)[C@H]1CCC2C3C(CC[C@@]21C)[C@@]1(C)CC[C@H](NCCCNCCCCNCCCN)C[C@@H]1C[C@H]3O` (stereo partly drawn) [ENT-03S, (2S,6R)-6-((3S,5R,7R,10S,13R,17R)-3-((3-((4-((3-aminopropyl)amino)butyl)amino)propyl)amino)-7-hydroxy-10,13-dimethylhexadecahydro-1 H-cyclopenta[a]phenanthren-17-yl)-2-methylheptanoic acid] as the molecule, how does the “Concentration (ng/ml) Rat 1-3” value (10 mg/kg SC, 2 h, individual rats, 10 mg/kg) read?
Answer: The value was 32700 ng/mL and 33300 ng/mL.

Question: And the “Concentration (ng/ml) Rat 1-3” value (10 mg/kg SC, 4 h, individual rats, 10 mg/kg)?
Answer: The value was 29600 ng/mL and 25400 ng/mL.

Question: What about the “Concentration (ng/ml) Rat 1-3” value (10 mg/kg SC, 8 h, individual rats, 10 mg/kg) of the same molecule?
Answer: The value was 25000 ng/mL and 23000 ng/mL.

Question: And the “Concentration (ng/ml) Rat 1-3” value (10 mg/kg SC, 24 h, individual rats, 10 mg/kg)?
Answer: Its value is 14100 ng/mL and 12600 ng/mL.

Question: What about the “Concentration (ng/ml) Rat 1-3” value (10 mg/kg SC, 48 h, individual rats, 10 mg/kg) of the same molecule?
Answer: Its value is 7700 ng/mL and 5620 ng/mL.

Question: What about the “Concentration (ng/ml) Rat 1-3” value (10 mg/kg SC, 72 h, individual rats, 10 mg/kg) of the same molecule?
Answer: Its value is 1850 ng/mL and 4200 ng/mL and 2440 ng/mL.

Question: What about the “AUC_% Extrap_obs” value [1] of the same molecule?
Answer: Its value is 6.74% and 15.0% and 8.08%.

Question: What about the AUClast [1] of the same molecule?
Answer: Its AUClast is 944.488 µg·h/mL and 811.185 µg·h/mL.

Question: And the AUClast/D [1]?
Answer: The AUClast/D was 71600 kg·ng·h/mL/mg and 94400 kg·ng·h/mL/mg and 81100 kg·ng·h/mL/mg.

Question: And the AUClnf [1]?
Answer: The AUClnf was 1110.949 µg·h/mL and 882.526 µg·h/mL.

Question: And the Cmax [1]?
Answer: Its Cmax is 32700 ng/mL and 33300 ng/mL.

Question: And the MRTlnf_obs [1]?
Answer: Its MRTlnf_obs is 24.3 h and 36.3 h and 27.2 h.

Question: What about the T1/2 [1] of the same molecule?
Answer: The T1/2 was 27.5 h and 20.3 h.

Question: What about the “AUC_% Extrap_obs Mean” value (SC Dose 10 mg/kg, plasma, mean) of the same molecule?
Answer: The value was 9.9%.

Question: And the AUClast/D Mean (SC Dose 10 mg/kg, plasma, mean)?
Answer: The AUClast/D Mean was 82400 kg·ng·h/mL/mg.

Question: And the “MRTlnf_obs Mean” value (SC Dose 10 mg/kg, plasma, mean)?
Answer: Its value is 29.3 h.

Question: What about the Tmax (Sprague-Dawley, rat, SC Dose 10 mg/kg, plasma, individual rats, read-out: Tmax) of the same molecule?
Answer: The Tmax was 2 h.

Question: What about the concentration at 0.25 h [2] of the same molecule?
Answer: The concentration at 0.25 h was 23100 ng/mL.

Question: What about the concentration at 0.25 h [3] of the same molecule?
Answer: Its concentration at 0.25 h is 22000 ng/mL.

Question: What about the concentration at 0.5 h [2] of the same molecule?
Answer: Its concentration at 0.5 h is 25700 ng/mL.

Question: And the concentration at 0.5 h [3]?
Answer: Its concentration at 0.5 h is 27700 ng/mL.

Question: What about the concentration at 1 h [2] of the same molecule?
Answer: Its concentration at 1 h is 30700 ng/mL.

Question: What about the concentration at 1 h [3] of the same molecule?
Answer: Its concentration at 1 h is 31800 ng/mL.

Question: What about the concentration at 2 h (male, Sprague-Dawley, rat, plasma, sc, 10 mg/kg, 10 mg/kg SC, 2 h, individual rats, read-out: Concentration (ng/ml) Rat 1-3) of the same molecule?
Answer: Its concentration at 2 h is 31300 ng/mL.

Question: And the concentration at 2 h (male, Sprague-Dawley, rat, plasma, sc, 10 mg/kg, 10 mg/kg SC, 2 h, mean, read-out: Concentration Mean)?
Answer: The concentration at 2 h was 32400 ng/mL.

Question: And the concentration at 4 h (male, Sprague-Dawley, rat, plasma, sc, 10 mg/kg, 10 mg/kg SC, 4 h, individual rats, read-out: Concentration (ng/ml) Rat 1-3)?
Answer: Its concentration at 4 h is 25700 ng/mL.

Question: And the concentration at 4 h (male, Sprague-Dawley, rat, plasma, sc, 10 mg/kg, 10 mg/kg SC, 4 h, mean, read-out: Concentration Mean)?
Answer: Its concentration at 4 h is 26900 ng/mL.

Question: What about the concentration at 8 h (male, Sprague-Dawley, rat, plasma, sc, 10 mg/kg, 10 mg/kg SC, 8 h, individual rats, read-out: Concentration (ng/ml) Rat 1-3) of the same molecule?
Answer: Its concentration at 8 h is 22700 ng/mL.

Question: What about the concentration at 8 h (male, Sprague-Dawley, rat, plasma, sc, 10 mg/kg, 10 mg/kg SC, 8 h, mean, read-out: Concentration Mean) of the same molecule?
Answer: Its concentration at 8 h is 23600 ng/mL.

Question: What about the concentration at 24 h (male, Sprague-Dawley, rat, plasma, sc, 10 mg/kg, 10 mg/kg SC, 24 h, individual rats, read-out: Concentration (ng/ml) Rat 1-3) of the same molecule?
Answer: Its concentration at 24 h is 10300 ng/mL.

Question: And the concentration at 24 h (male, Sprague-Dawley, rat, plasma, sc, 10 mg/kg, 10 mg/kg SC, 24 h, mean, read-out: Concentration Mean)?
Answer: The concentration at 24 h was 12300 ng/mL.

Question: What about the concentration at 48 h (male, Sprague-Dawley, rat, plasma, sc, 10 mg/kg, 10 mg/kg SC, 48 h, individual rats, read-out: Concentration (ng/ml) Rat 1-3) of the same molecule?
Answer: Its concentration at 48 h is 4080 ng/mL.

Question: And the concentration at 48 h (male, Sprague-Dawley, rat, plasma, sc, 10 mg/kg, 10 mg/kg SC, 48 h, mean, read-out: Concentration Mean)?
Answer: Its concentration at 48 h is 5770 ng/mL.

Question: What about the concentration at 72 h (male, Sprague-Dawley, rat, plasma, sc, 10 mg/kg, 10 mg/kg SC, 72 h, mean) of the same molecule?
Answer: Its concentration at 72 h is 2830 ng/mL.

Question: And the AUC(0-t) (male, Sprague-Dawley, rat, plasma, sc, 10 mg/kg, SC Dose 10 mg/kg, plasma, individual rats, read-out: AUClast)?
Answer: Its AUC(0-t) is 716 µg·h/mL.

Question: What about the AUC (male, Sprague-Dawley, rat, plasma, sc, 10 mg/kg, SC Dose 10 mg/kg, plasma, individual rats, read-out: AUClnf) of the same molecule?
Answer: The AUC was 767 µg·h/mL.

Question: What about the Cmax (male, Sprague-Dawley, rat, plasma, sc, 10 mg/kg, SC Dose 10 mg/kg, plasma, individual rats, read-out: Cmax) of the same molecule?
Answer: The Cmax was 31300 ng/mL.

Question: And the half-life (male, Sprague-Dawley, rat, plasma, sc, 10 mg/kg, SC Dose 10 mg/kg, plasma, individual rats, read-out: T1/2 (converted))?
Answer: Its half-life is 19.4 h.

Question: What about the AUC(0-t) (male, Sprague-Dawley, rat, plasma, sc, 10 mg/kg, SC Dose 10 mg/kg, plasma, mean, read-out: AUClast Mean) of the same molecule?
Answer: The AUC(0-t) was 824 µg·h/mL.

Question: And the AUC (male, Sprague-Dawley, rat, plasma, sc, 10 mg/kg, SC Dose 10 mg/kg, plasma, mean, read-out: AUClnf Mean)?
Answer: Its AUC is 920 µg·h/mL.

Question: And the Cmax (male, Sprague-Dawley, rat, plasma, sc, 10 mg/kg, SC Dose 10 mg/kg, plasma, mean, read-out: Cmax Mean)?
Answer: The Cmax was 32400 ng/mL.

Question: And the half-life (male, Sprague-Dawley, rat, plasma, sc, 10 mg/kg, SC Dose 10 mg/kg, plasma, mean, read-out: T1/2 Mean (converted))?
Answer: The half-life was 22.4 h.
